From patent US9428771B2, “Method for the oxidation of organic compounds” (STUDIENGE[…] MBH, priority 2010, dated 2016) come the findings set out here.

Where two headings read alike, the source gives them in different places.

The target of series [1] is T1, P450 BM3 (Priestia megaterium, UniProt P14779). The experiment in a line: P450 BM3 catalysed oxidation of methane to methanol in the presence of an additive. The format is biochemical, Bacillus megaterium. Details: polyhistidine (His6) tag from vector pETM11 (N); made in house; host or cells: E. coli BL21 (DE3) GOLD. Conditions: 1 mM additive, 25° C; for Total product formed (methanol): 7% methane, 8% O2, 85% N2, 10 bar; for TON: methane, 10 bar. Here is the method: (§1) The hydroxylation of gaseous alkanes was carried out in a self-constructed low-pressure reactor. […] Subsequently the reaction vessels were linked to a gas bottle via a multichannel gas feed. The following gas mixtures were used to flush the apparatus and to apply a pressure of 10 bar to the reaction solution: a) 7% methane, 8% oxygen, 85% nitrogen, b) 7% propane, 8% oxygen, 85% nitrogen or c) 10% butane, 8% oxygen, 82% nitrogen. The reaction mixture was stirred at 100 rpm with a crosshead-shaped magnetic stirrer (VWR). At the end of the reaction the pressure was carefully released from the reaction vessels, a 1 ml aliquot was centrifuged for 10 min at 13 000 rpm and analyzed by HPLC. […] Each experiment comprised at least one positive control for the enzyme activity, in which dodecanoic acid was added as additive (1 mM final concentration, from a 100 mM stock in DMSO), while the enzyme was exposed to 10 bar of the gaseous alkane mixture. The reaction of dodecanoic acid was analyzed using decanoic acid (1 mM final concentration, from a 100 mM stock in DMSO) as standard. The samples were extracted for the GC analysis with 0.5 volume of MTBE and were analyzed by GC.
30 min isotherm, 60-240° C. at 16° C./min, 240° C. for 5 min isotherm.
The quantification of propanol and butanol was carried out using the RID-10A detector, while the quantification of methanol was carried out using the RID-10A or, preferably, the ED 50 detector. The ED 50 detector was operated in integrated, amperometric detection mode with an Ag reference electrode in the range of 300 nC. The detection was carried out in waveform as follows: […]

For series [2], the target named is T1, P450 BM3. Briefly: P450 BM3 catalysed oxidation of butane and propane in the presence of additives. The note with it: 1 mM additive, 25° C; for TON: 10 bar; for % ee: Butane oxidation product. The series is classed as biochemical, Bacillus megaterium. On the set-up: polyhistidine (His6) tag from vector pETM11 (N); made in house; host or cells: E. coli BL21 (DE3) GOLD. As to the method: as §1
The quantification of propanol and butanol was carried out using the RID-10A detector, while the quantification of methanol was carried out using the RID-10A or, preferably, the ED 50 detector. The ED 50 detector was operated in integrated, amperometric detection mode with an Ag reference electrode in the range of 300 nC. The detection was carried out in waveform as follows:
The P450 BM3 catalysed oxidation of butane and propane was carried out in the presence or absence of additives 1 under standard conditions as follows: 2.5 ml reaction volume, 5 ml gas volume, 1% DMF, 100 mM KPi, pH 8.0, 10 bar pressure (10% n-butane, 8% O2, 82% N2; 7% propane, 8% O2, 85% N2), propane oxidation: 14.5 h, butane oxidation: 17.5 h., 25° C.

Series [3] concerns the target T1, P450 BM3. The note with it: 1 mM additive, 20° C; for TON: mol of product/mol of enzyme; for Regioselectivity: 1 hour.
Protocol: For hydroxylating alkanes, for example C6 and C8 alkanes, the substrate was added to the reaction solution from a 160 mM stock in EtOH and was adjusted to a final concentration of 3.2 mM. The solution further comprised 0.1 M glucose (Riedel de Haen), 1 mM NADP^+ (Codexis, Jülich, Germany), 1 U/ml GDH (#001, Codexis, Jülich, Germany), 1 mM additive (unless otherwise stated), BM3-WT enzyme and 100 mM KPi, pH 8.0 with a total volume of 20 ml. The reactions were shaken for 1 hour at 20° C. in a 50 ml Falcon reaction tube in a bacterial incubator at 130 rpm. After one hour, three aliquots were removed, each of 1 ml volume, and acidified with 0.1 ml of 10% HCl. Subsequently 1 mM 1-pentanol was added as internal standard. The mixture was extracted with half a volume of MTBE and analyzed by gas chromatography.
Hydroxylation products were analyzed by GC using the following instruments and under the following conditions: HP6890+7683HP (Hewlett Packard, USA); column: 15 m Stabilwax phase, internal diameter 0.25 mm, film thickness 0.5 μm, (J&W, Germany); pressure: 0.8 bar H2; split rate 60; injector: 220° C.; temperature gradient: 40° C. 4 min isotherm, 40-60° C. at 4° C./min, 60° C.-250° C. at 15° C./min. FID detector. The product peaks were quantified as a ratio to the 1 mM 1-pentanol peak using the following, previously determined, correction factors: 2-octanol: 2.36; 3-,4-octanol: 2.23; 2-,3-hexanol:1.218; 3-Me-3-PeOH,3-Me-2-PeOH: 1.49; 3,3-Di-Me-2-BuOH: 1.43; 2,3-Di-Me-BuOH: 1.317.
Reaction conditions: 3.2 mM alkane; 1% v/v DMF; 2% v/v ethanol; 100 mM glucose, 1 mM NADP^+, 1 U/ml GDH, 1 mM additive, 100 mM KPi, pH 8.0, total volume 20 ml; 1 hour; 20° C. The P450-BM3 concentration depended on the compound used 2: 1 μM, 3: 2.9 μM, 4: 2.9 μM, 5: 1.1 μM, 6: 2.7 μM)
The turnover numbers (TON) were calculated (mol of product/mol of enzyme) for the enzyme at the end of the reaction.
The mark [4] stands for this setting: Propane (7% propane, 8% O2, 85% N2, 10 bar), 2.9 μM enzyme, 14.5 h.
The mark [5] stands for this setting: Butane (10% n-butane, 8% O2, 82% N2, 10 bar), 2.3 μM enzyme, 17.5 h.
[6] abbreviates: alkane 2 (3.2 mM), 1 μM P450-BM3, 1 hour.
Where [7] appears, read: alkane 4 (3.2 mM), 2.9 μM P450-BM3, 1 hour.
Where [8] appears, read: alkane 5 (3.2 mM), 1.1 μM P450-BM3, 1 hour.
Setting [9] is: alkane 3 (3.2 mM), 2.9 μM P450-BM3, 1 hour.
Setting [10] is: alkane 6 (3.2 mM), 2.7 μM P450-BM3, 1 hour.

T1 sequence (P14779 whole entry): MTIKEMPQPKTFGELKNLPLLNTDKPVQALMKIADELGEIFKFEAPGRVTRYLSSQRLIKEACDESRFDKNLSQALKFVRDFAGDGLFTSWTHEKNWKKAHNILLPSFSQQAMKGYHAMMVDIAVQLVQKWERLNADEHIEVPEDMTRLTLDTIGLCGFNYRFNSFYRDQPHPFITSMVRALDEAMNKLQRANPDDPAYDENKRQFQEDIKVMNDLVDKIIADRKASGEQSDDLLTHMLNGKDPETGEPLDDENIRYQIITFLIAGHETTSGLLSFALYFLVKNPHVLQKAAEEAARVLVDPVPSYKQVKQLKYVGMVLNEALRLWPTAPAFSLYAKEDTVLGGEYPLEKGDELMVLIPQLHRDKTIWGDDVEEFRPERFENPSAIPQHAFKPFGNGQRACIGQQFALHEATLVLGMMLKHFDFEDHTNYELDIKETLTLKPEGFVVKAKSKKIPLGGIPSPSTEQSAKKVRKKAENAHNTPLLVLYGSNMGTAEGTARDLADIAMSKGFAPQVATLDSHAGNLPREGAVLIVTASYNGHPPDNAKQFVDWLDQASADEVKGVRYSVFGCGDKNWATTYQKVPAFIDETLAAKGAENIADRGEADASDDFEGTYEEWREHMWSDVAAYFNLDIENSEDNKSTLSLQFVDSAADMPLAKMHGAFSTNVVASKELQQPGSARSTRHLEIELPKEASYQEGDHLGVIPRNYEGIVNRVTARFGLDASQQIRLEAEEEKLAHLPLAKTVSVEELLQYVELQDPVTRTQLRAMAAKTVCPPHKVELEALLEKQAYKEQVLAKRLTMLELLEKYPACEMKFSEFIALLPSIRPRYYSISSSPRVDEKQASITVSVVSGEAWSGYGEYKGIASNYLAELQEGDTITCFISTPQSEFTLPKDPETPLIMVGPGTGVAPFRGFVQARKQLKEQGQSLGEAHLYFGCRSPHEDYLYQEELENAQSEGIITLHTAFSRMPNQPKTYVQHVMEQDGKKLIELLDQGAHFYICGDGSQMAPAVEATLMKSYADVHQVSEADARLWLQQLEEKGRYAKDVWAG

Consider `OCCC(F)(F)C(F)(F)C(F)(F)C(F)(F)C(F)(F)C(F)(F)F` [1H, 1H, 2H, 2H-perfluorooctan-1-ol], for which, in series [1] (19 h), the “Total product formed (methanol)” value came to 2.53 mM and the TON is 1889.

Consider `O=C(O)C(F)(F)C(F)(F)C(F)(F)C(F)(F)C(F)(F)C(F)(F)C(F)(F)C(F)(F)C(F)(F)C(F)(F)C(F)(F)C(F)(F)C(F)(F)F` [Additive 1h, perfluorotetradecanoic acid], for which the Total product formed in series [2] (setting [4]) is listed as 0.50 mM. Also, the TON in series [2] (Propane, 2.9 μM enzyme, 14.5 h) was 170. Moreover, in series [1] (1.3 μM enzyme, 21 h), the “Total product formed (methanol)” value was determined as 0.28 mM and the TON came out at 210.

On to `O=C(O)C(F)(F)C(F)(F)C(F)(F)C(F)(F)C(F)(F)C(F)(F)C(F)(F)C(F)(F)C(F)(F)C(F)(F)C(F)(F)C(F)(F)F` [Additive 1g, perfluorotridecanoic acid], for which, in series [1] (1.3 μM enzyme, 21 h), the “Total product formed (methanol)” value came out at 0.75 mM and the TON is 560.

Consider `O=C(O)C(F)(F)C(F)(F)C(F)(F)C(F)(F)C(F)(F)C(F)(F)C(F)(F)C(F)(F)F` [Additive 1c, perfluorononanoic acid], for which the Total product formed in series [2] (setting [5]) turned out to be 2.0 mM; in series [3] (setting [6]), 1.16 mM; in series [3] (setting [7]), 1.36 mM; in series [3] (setting [8]) it was 0.96 mM. Also, the “% ee” value in series [2] (17.5 h) is 23%. In addition, the TON in series [2] (Butane, 2.3 μM enzyme, 17.5 h) is 879; in series [1] (1.3 μM enzyme, 21 h), 2053; in series [3] (setting [6]) it was 1184; in series [3] (setting [7]) it was 476; in series [3] (setting [8]), 892. Further, the “Total product formed (methanol)” value in series [1] (1.3 μM enzyme, 21 h) was found to be 2.75 mM. Moreover, in series [3] (alkane 5 (3.2 mM), cell reads: only 2-Hydroxy-3,3-dimethylbutane), the Regioselectivity entry was “only 2-Hydroxy-3,3-”.

In the case of `OCCCCCCC(F)(F)C(F)(F)F` [6(perfluoroethyl)hexanol, 6-(perfluoroethyl)hexanol], in series [1] (19 h), the “Total product formed (methanol)” value is given as 2.69 mM and the TON worked out at 2006.

Consider `O=C(O)C(F)(F)F` [Additive 1a], for which, in series [2] (setting [5]), the Total product formed was determined as 1.1 mM. The “% ee” value in series [2] (17.5 h) was 32%. In addition, the TON in series [2] (Butane, 2.3 μM enzyme, 17.5 h) is 469.

`O=C(O)C(F)(F)C(F)(F)C(F)(F)C(F)(F)C(F)(F)C(F)(F)C(F)(F)C(F)(F)C(F)(F)F` [Additive 1d, perfluorodecanoic acid]: in series [2] (setting [5]), the Total product formed came out at 3.9 mM. In series [2] (17.5 h), the “% ee” value turned out to be 20%. The TON in series [2] (Butane, 2.3 μM enzyme, 17.5 h) is given as 1699. Moreover, in series [1] (1.3 μM enzyme, 21 h), the “Total product formed (methanol)” value is 3.31 mM and the TON came out at 2472.

For the compound `O=C(O)C(F)(F)C(F)(F)C(F)(F)C(F)(F)C(F)(F)C(F)(F)F` [Additive 1b, perfluoroheptanoic acid], the Total product formed in series [2] (setting [5]) came to 8.4 mM. Further, the “% ee” value in series [2] (17.5 h) turned out to be 22%. Moreover, in series [2] (Butane, 2.3 μM enzyme, 17.5 h), the TON is recorded as 3632.

Take `O=C(O)C(F)(F)C(F)(F)C(F)(F)C(F)(F)C(F)(F)C(F)(F)C(F)(F)C(F)(F)C(F)(F)C(F)(F)C(F)(F)F` [Additive 1f, perfluorododecanoic acid]: the Total product formed in series [2] (setting [4]) was 0.67 mM. Further, the TON in series [2] (Propane, 2.9 μM enzyme, 14.5 h) is on record as 227. In series [1] (1.3 μM enzyme, 21 h), the “Total product formed (methanol)” value turned out to be 1.25 mM and the TON amounted to 933.

On to `O=C(O)C(F)(F)C(F)(F)C(F)(F)C(F)(F)C(F)(F)C(F)(F)C(F)(F)C(F)(F)C(F)(F)C(F)(F)F` [Additive 1e, perfluoroundecanoic acid], for which the Total product formed was found to be 5.8 mM in series [2] (setting [5]), 3.0 mM in series [2] (setting [4]), 1.50 mM in series [3] (setting [9]) and 0.19 mM in series [3] (setting [10]). Moreover, the “% ee” value in series [2] (17.5 h) turned out to be 19%. In addition, the TON in series [2] (Butane, 2.3 μM enzyme, 17.5 h) came out at 2519; in series [2] (Propane, 2.9 μM enzyme, 14.5 h), 1021; in series [1] (1.3 μM enzyme, 21 h) it was 1353; in series [3] (setting [9]), 525; in series [3] (setting [10]), 3241. Also, the “Total product formed (methanol)” value in series [1] (1.3 μM enzyme, 21 h) was 1.81 mM. Moreover, the Regioselectivity entry in series [3] (alkane 6 (3.2 mM), cell reads: only 2-Hydroxy-2,3-dimethylbutane) is listed as “only 2-Hydroxy-2,3-”.

On to `OCCCC(F)(F)C(F)(F)C(F)(F)C(F)(F)C(F)(F)C(F)(F)C(F)(F)C(F)(F)F` [1H, 1H, 2H, 2H, 3H, 3H-Perfluoroundecano, 1H, 1H, 1H, 2H, 2H, 3H, 3H-perfluoroundecanol], for which, in series [1] (19 h), the “Total product formed (methanol)” value was determined as 0.84 mM and the TON worked out at 630.
